# In patent US20050004186A1, “MEK inhibiting compounds” (Pfizer Inc, priority 2002, published 2005):
# Counter-ions that a name gives are not always drawn.
# What was measured:
# MEK = assay: Cellular assay for measuring MEK inhibition, C26CPA1 (inhibition of ERK phosphorylation in C26 cells); type: cell-based, murine; details: for IC50: murine colon 26 (C26) carcinoma cells, one hour at 37 C; for C26CPA1 % Inhibition @ 0.1 μM / C26CPA1 % Inhibition @ 1 μM: C26 cells
# Protocol: Cellular Assay for Measuring MEK Inhibition
# MEK inhibitors were evaluated by determining their ability to inhibit phosphorylation of MAP kinase (ERK) in murine colon 26 (C26) carcinoma cells. Since ERK1 and ERK2 represent the only known substrates for MEK1 and MEK2, the measurement of inhibition of ERK phosphorylation in cells provides direct read out of cellular MEK inhibition by the compounds of the invention. Detection of phosphorylation of ERK was carried out either by Western blot or ELISA format. Briefly, the assays involve treatment of exponentially growing C26 cells with varying concentrations of the test compound (or vehicle control) for one hour at 37≡ C. For Western blot assay, cells were rinsed free of compound/vehicle and lysed in a solution containing 70 mM NaCl, 50 mM glycerol phosphate, 10 mM HEPES, […], 1% Triton X-100, 1 mM Na3VO4, 100 μM PMSF, 10 μM leupeptin and 10 μM pepstatin. Supernatants were then subjected to gel electrophoresis and hybridized to a primary antibody recognizing dually phosphorylated ERK1 and ERK2. To evaluate total MAPK levels, blots were subsequently ‘stripped’ and re-probed with a 1:1 mixture of polyclonal antibodies recognizing unphosphorylated ERK1 and ERK2. For pERK ELISA assay, pERK TiterZyme Enzyme immunometric Assay kits were acquired from Assay Designs, Inc (Ann Arbor, Mich.). Briefly, cells were harvested in lysis solution containing 50 mM β-glycerophosphate, 10 mM HEPES, pH7.4, 70 mM NaCl, 2 mM EDTA and 1% SDS and protein lysates were diluted 1:15 with supplied Assay buffer prior to the execution of the assay. The subsequent steps were carried out essentially as recommended by the manufacturer.
SMILES,melting point [°C],IC50 (MEK) [µM],C26CPA1 % Inhibition @ 0.1 μM (MEK) [%],C26CPA1 % Inhibition @ 1 μM (MEK) [%]
"CN(C)CCCN(C)c1nnc(-c2ccc(F)c(F)c2Nc2ccc(I)cc2F)o1 (as salt: hydrochloride) [Example 12, N-{5-[3,4-Difluoro-2-(2-fluoro-4-iodo-phenylamino)-phenyl]-[1,3,4]oxadiazol-2-yl}-N,N′,N′-trimethyl-propane-1,3-diamine]",123 to 126,,,
"Fc1cc(I)ccc1Nc1c(-c2nnc(NCCN3CCCCC3)o2)ccc(F)c1F (as salt: hydrochloride) [Example 13, {5-[3,4-Difluoro-2-(2-fluoro-4-iodo-phenylamino)-phenyl]-[1,3,4]oxadiazol-2-yl}-(2-piperidin-1-yl-ethyl)-amine]",191 to 193,,,
"NCCCCNc1nnc(-c2ccc(F)c(F)c2Nc2ccc(I)cc2F)o1 (as salt: hydrochloride) [Example 14, N′1′-{5-[3,4-Difluoro-2-(2-fluoro-4-iodo-phenylamino)-phenyl]-[1,3,4]oxadiazol-2-yl}-butane-1,4-diamine]",157 to 159,,,
"NCCCNc1nnc(-c2ccc(F)c(F)c2Nc2ccc(I)cc2F)o1 (as salt: hydrochloride) [Example 15, N′1′-{5-[3,4-Difluoro-2-(2-fluoro-4-iodo-phenylamino)-phenyl]-[1,3,4]oxadiazol-2-yl}-propane-1,3-diamine]",173 to 176,,,
"CN(C)CCCNc1nnc(-c2ccc(F)c(F)c2Nc2ccc(I)cc2F)o1 (as salt: hydrochloride) [Example 16, N-{5-[3,4-Difluoro-2-(2-fluoro-4-iodo-phenylamino)-phenyl]-[1,3,4]oxadiazol-2-yl}-N′,N′-dimethyl-propane-1,3-diamine]",168 to 170,,,
"CN(C)CCNc1nnc(-c2ccc(F)c(F)c2Nc2ccc(I)cc2F)o1 (as salt: hydrochloride) [Example 17, N-{5-[3,4-Difluoro-2-(2-fluoro-4-iodo-phenylamino)-phenyl]-[1,3,4]oxadiazol-2-yl}-N′,N′-dimethyl-ethane-1,2-diamine]",184 to 187,,,
"CNCCNc1nnc(-c2ccc(F)c(F)c2Nc2ccc(I)cc2F)o1 (as salt: hydrochloride) [Example 18, N-{5-[3,4-Difluoro-2-(2-fluoro-4-iodo-phenylamino)-phenyl]-[1,3,4]oxadiazol-2-yl}-N′-methyl-ethane-1,2-diamine]",173 to 175,,,
"NCCNc1nnc(-c2ccc(F)c(F)c2Nc2ccc(I)cc2F)o1 (as salt: salt) [Example 11, N′1′-{5-[3,4-Difluoro-2-(2-fluoro-4-iodo-phenylamino)-phenyl]-[1,3,4]oxadiazol-2-yl}-ethane-1,2-diamine]",156 to 158,,,
"Nc1nnc(-c2ccc(F)c(F)c2Nc2ccc(I)cc2F)o1 [Example 1, 5-[3,4-Difluoro-2-(2-fluoro-4-iodo-phenylamino)-phenyl]-[1,3,4]oxadiazol-2-ylamine]",248 to 249,0.04,,
"CCNc1nnc(-c2ccc(F)c(F)c2Nc2ccc(I)cc2F)o1 [Example 4, {5-[3,4-Difluoro-2-(2-fluoro-4-iodo-phenylamino)-phenyl]-[1,3,4]oxadiazol-2-yl}-ethyl-amine]",188 to 189,0.089,,
"C=CCNc1nnc(-c2ccc(F)c(F)c2Nc2ccc(I)cc2F)o1 [Example 5, Allyl-{5-[3,4-difluoro-2-(2-fluoro-4-iodo-phenylamino)-phenyl]-[1,3,4]oxadiazol-2-yl}-amine]",175 to 178,0.009,,
"COc1ccc(Nc2nnc(-c3ccc(F)c(F)c3Nc3ccc(I)cc3F)o2)c(OC)c1 [Example 6, {5-[3,4-Difluoro-2-(2-fluoro-4-iodo-phenylamino)-phenyl]-[1,3,4]oxadiazol-2-yl}-(2.4-dimethoxy-phenyl)-amine]",185 to 186,> 1,,
"CN(C)c1ccc(Nc2nnc(-c3ccc(F)c(F)c3Nc3ccc(I)cc3F)o2)cc1 [Example 7, N-{5-[3,4-Difluoro-2-(2-fluoro-4-iodo-phenylamino)-phenyl]-[1,3,4]oxadiazol-2-yl}-N′,N′-dimethyl-benzene-1,4-diamine]",230 to 233,> 1,,
"OCC(O)CNc1nnc(-c2ccc(F)c(F)c2Nc2ccc(I)cc2F)o1 (centres unmarked) [Example 8, 3-{5-[3,4-Difluoro-2-(2-fluoro-4-iodo-phenylamino)-phenyl]-[1,3,4]oxadiazol-2-ylamino}-propane-1,2-diol]",157 to 159,0.067,,
"CCN(CC)CCCNc1nnc(-c2ccc(F)c(F)c2Nc2ccc(I)cc2F)o1 [Example 10, N-{5-[3,4-Difluoro-2-(2-fluoro-4-iodo-phenylamino)-phenyl]-[1,3,4]oxadiazol-2-yl}-N′,N′-diethyl-propane-1,3-diamine]",116 to 118,0.153,,
"CCc1ccc(Nc2c(-c3nnc(N(C)CCc4ccccn4)o3)ccc(F)c2F)c(F)c1 [Example 127, {5-[2-(4-Ethyl-2-fluoro-phenylamino)-3,4-difluoro-phenyl]-1,3,4-oxadiazol-2-yl}-methyl-(2-pyridin-2-yl-ethyl)-amine]",,,0,0
"CCc1ccc(Nc2c(-c3nnc(NCC(c4cccnc4)N4CCOCC4)o3)ccc(F)c2F)c(F)c1 (centres unmarked) [Example 128, {5-[2-(4-Ethyl-2-fluoro-phenylamino)-3,4-difluoro-phenyl]-1,3,4-oxadiazol-2-yl}-(2-morpholin-4-yl-2-pyridin-3-yl-ethyl)-amine]",,,0,0
"CCc1ccc(Nc2c(-c3nnc(NC(C)Cc4ccsc4)o3)ccc(F)c2F)c(F)c1 (centres unmarked) [Example 137, {5-[2-(4-Ethyl-2-fluoro-phenylamino)-3,4-difluoro-phenyl]-1,3,4-oxadiazol-2-yl}-(1-methyl-2-thiophen-3-yl-ethyl)-amine]",,,72.1,85.3

# Second part, led by results:
melting point [°C],IC50 (MEK) [µM],SMILES,C26CPA1 % Inhibition @ 0.1 μM (MEK) [%],C26CPA1 % Inhibition @ 1 μM (MEK) [%]
143 to 146,0.309,"CN(C)CC(C)(C)CNc1nnc(-c2ccc(F)c(F)c2Nc2ccc(I)cc2F)o1 [Example 19, N-{5-[3,4-Difluoro-2-(2-fluoro-4-iodo-phenylamino)-phenyl]-[1,3,4]oxadiazol-2-yl}-2,2,N′,N′-tetramethyl-propane-1.3-diamine]",,
63 to 65,0.13,"COCCN1CCN(c2nnc(-c3ccc(F)c(F)c3Nc3ccc(I)cc3F)o2)CC1 [Example 22, (2,3-Difluoro-6-{5-[4-(2-methoxy-ethyl)-piperazin-1-yl]-[1,3,4]oxadiazol-2-yl}-phenyl)-(2-fluoro-4-iodo-phenyl)-amine]",,
67 to 70,0.292,"CC(C)(CO)CCCNc1nnc(-c2ccc(F)c(F)c2Nc2ccc(I)cc2F)o1 [Example 23, 5-{5-[3,4-Difluoro-2-(2-fluoro-4-iodo-phenylamino)-phenyl]-[1,3,4]oxadiazol-2-ylamino}-2,2-dimethyl-pentan-1-ol]",,
182 to 183,0.17,"OC1CCN(c2nnc(-c3ccc(F)c(F)c3Nc3ccc(I)cc3F)o2)C1 (centres unmarked) [Example 24, 1-{5-[3.4-Difluoro-2-(2-fluoro-4-iodo-phenylamino)-phenyl]-[1,3,4]oxadiazol-2-yl}-pyrrolidin-3-ol]",,
90 to 92,> 1,"OCC1CCN(c2nnc(-c3ccc(F)c(F)c3Nc3ccc(I)cc3F)o2)CC1 [Example 25, (1-{5-[3,4-Difluoro-2-(2-fluoro-4-iodo-phenylamino)-phenyl]-[1,3,4]oxadiazol-2-yl}-piperidin-4-yl)-methanol]",,
121 to 122,0.14,"OCCC1CCN(c2nnc(-c3ccc(F)c(F)c3Nc3ccc(I)cc3F)o2)CC1 [Example 26, 2-(1-{5-[3,4-Difluoro-2-(2-fluoro-4-iodo-phenylamino)-phenyl]-[1,3,4]oxadiazol-2-yl}-piperidin-4-yl)-ethanol]",,
154 to 155,,"OCCCNc1nnc(-c2ccc(F)c(F)c2Nc2ccc(I)cc2F)o1 [Example 30, 3-{5-[3,4-Difluoro-2-(2-fluoro-4-iodo-phenylamino)-phenyl]-[1,3,4]oxadiazol-2-ylamino}-propan-1-ol]",,
120 to 123,,"C=CCNc1nnc(-c2ccc(F)c(F)c2Nc2ccc(CC)cc2F)o1 [Example 70, Allyl-{5-[2-(4-ethyl-2-fluoro-phenylamino)-3,4-difluoro-phenyl]-[1,3,4]oxadiazol-2-yl}-amine]",,
82 to 83,,"CCc1ccc(Nc2c(-c3nnc(CC)o3)ccc(F)c2F)c(F)c1 [Example 142, (4-Ethyl-2-fluoro-phenyl)-[6-(5-ethyl-[1,3,4]oxadiazol-2-yl)-2,3-difluoro-phenyl]-amine]",,
,0.91,"CNCCNc1nnc(-c2ccc(F)c(F)c2Nc2ccc(CCO)cc2F)o1 [Example 167, 2-(4-{2,3-difluoro-6-[5-(2-methylamino-ethylamino)-1[1,3,4]oxadiazol-2-yl]-phenylamino}-3-fluoro-phenyl)-ethanol]",,
